Test system: A549 cells
Experiment: Genome-wide siRNA screen: residual proliferation (WST-1) of siRNA-transfected cells upon CDDP
Format: cell-based, human
Settings: 50 μM CDDP for 24 hours
Method: High-throughput operations were carried out by means of a Microlab STAR automated workstation (Hamilton, Reno, USA) placed under a class II safety cabinet. In all screening rounds, each siRNA was tested in triplicates that were distributed to three different plates. Prior to cell seeding, transfection complexes were individually prepared in a V-bottomed 96-well deep well plate. In brief, each siRNA (as retrieved from the Human Whole Genome siRNA Set Version 1.0) was dissolved in a total volume of 122.5 μL serum-free phenol-red free DMEM/F12 medium (final concentration=10 nM, conditions for 7 wells). Similarly, an appropriate amount of HiPerFect® transfection reagent (Qiagen) was diluted in serum-free phenol-red free DMEM/F12 medium (0.25 μL per well). […] After additional 24 h, the 3 plates that were not subjected to cell death induction were assessed for both plasma membrane breakdown and residual cell proliferation, while the 3 plates that were treated with cell death-inducing stimuli were monitored for residual proliferation only (see next section). […]
In the second round of screen (4 siRNAs×1,000 transcripts=4,000 siRNAs), the effects of individual siRNAs were analyzed and scored as described above. […]

N.N.[Cl][Pt][Cl] [CDDP, cis-diammineplatinum(II) dichloride]
cells killed: ~45%

Source: patent US20130281313A1, “PROGNOSTIC AND/OR PREDICTIVE BIOMARKERS AND BIOLOGICAL APPLICATIONS THEREOF” (INSTITUT GUSTAVE ROUSSY, priority 2010, published 2013)
